{"source": "patent US7375088B2", "about": "“Polyene polyketides, processes for their production and their use as a pharmaceutical” (Thallion Pharmaceuticals Inc., priority 2003, dated 2008)", "key": {"Aspergillus flavus": {"test_system": "Aspergillus flavus", "experiment": "Disk diffusion assay (MEC and zone of inhibition)", "format": "cell-based", "details": "for ZOI (zone of inhibition of fungal growth calculated for each MEC): at the MEC; for ZOI (zone of inhibition of fungal growth calculated for each MEC) / MEC (minimum effective concentration): 24 hours of incubation; for MEC (minimum effective concentration): disk diffusion"}, "Aspergillus fumigatus": {"test_system": "Aspergillus fumigatus", "experiment": "Disk diffusion assay (MEC and zone of inhibition)", "format": "cell-based", "details": "for ZOI (zone of inhibition of fungal growth calculated for each MEC): at the MEC; for ZOI (zone of inhibition of fungal growth calculated for each MEC) / MEC (minimum effective concentration): 24 hours of incubation; for MEC (minimum effective concentration): disk diffusion"}}, "data": [{"smiles": "CC[C@H](C)C[C@H](C)CCCCCCCCC(=O)N[C@H]1C[C@@H](O)[C@@H](NCCN)NC(=O)[C@@H]2[C@@H](O)CCN2C(=O)[C@H]([C@H](O)CCN)NC(=O)[C@H]([C@H](O)[C@@H](O)c2ccc(O)cc2)NC(=O)[C@@H]2C[C@@H](O)CN2C(=O)[C@H]([C@@H](C)O)NC1=O", "note": "[Casponfungin]", "values": [{"measurement": "ZOI (zone of inhibition of fungal growth calculated for each MEC)", "setting": "Aspergillus flavus", "value": 0.7, "unit": "mm"}, {"measurement": "MEC (minimum effective concentration)", "setting": "Aspergillus flavus", "value": 2.5, "unit": "µg/mL"}, {"measurement": "ZOI (zone of inhibition of fungal growth calculated for each MEC)", "setting": "Aspergillus fumigatus", "value": 0.7, "unit": "mm"}, {"measurement": "MEC (minimum effective concentration)", "setting": "Aspergillus fumigatus", "value": 2.5, "unit": "µg/mL"}]}, {"smiles": "OC(Cn1cncn1)(Cn1cncn1)c1ccc(F)cc1F", "note": "[Fluconazole]", "values": [{"measurement": "antifungal activity in disk diffusion assay", "setting": "Aspergillus flavus", "value": "inactive"}, {"measurement": "ZOI (zone of inhibition of fungal growth calculated for each MEC)", "setting": "Aspergillus flavus", "value": 0, "unit": "mm"}, {"measurement": "MEC (minimum effective concentration)", "setting": "Aspergillus flavus", "value": 0, "unit": "µg/mL"}, {"measurement": "antifungal activity in disk diffusion assay", "setting": "Aspergillus fumigatus", "value": "inactive"}, {"measurement": "ZOI (zone of inhibition of fungal growth calculated for each MEC)", "setting": "Aspergillus fumigatus", "value": 0, "unit": "mm"}, {"measurement": "MEC (minimum effective concentration)", "setting": "Aspergillus fumigatus", "value": 0, "unit": "µg/mL"}]}, {"smiles": "CCC(C)n1ncn(-c2ccc(N3CCN(c4ccc(OCC5COC(Cn6cncn6)(c6ccc(Cl)cc6Cl)O5)cc4)CC3)cc2)c1=O", "note": "(centres unmarked) [Itraconazole]", "values": [{"measurement": "ZOI (zone of inhibition of fungal growth calculated for each MEC)", "setting": "Aspergillus flavus", "value": 1.7, "unit": "mm"}, {"measurement": "MEC (minimum effective concentration)", "setting": "Aspergillus flavus", "value": 0.5, "unit": "µg/mL"}, {"measurement": "ZOI (zone of inhibition of fungal growth calculated for each MEC)", "setting": "Aspergillus fumigatus", "value": 1.7, "unit": "mm"}, {"measurement": "MEC (minimum effective concentration)", "setting": "Aspergillus fumigatus", "value": 1.0, "unit": "µg/mL"}]}]}
